Test results: patent publication US6528516B1, “Methods for reducing intraocular pressure using A3 adenosine receptor antagonists” (Trustees of the University of Pennsylvania, The Center for …, priority 1998, dated 2003)
“Also recorded” adds a separate entry of the source.

Assays:
[1] = tested on: HCE (human ciliary epithelial) cell line, NPE cells; test: Cell volume (shrinkage) of NPE cells in isosmotic solution, Coulter Counter, 5 μM gramicidin; type: cell-based; conditions: for effect of A3 antagonist on shrinkage triggered by 3 μM CGS-21680: 100 nM MRS-1191 preincubation; for effect of A3 antagonist on adenosine-stimulated isotonic shrinkage: 300 nM MRS-1097, 100 nM MRS-1191, 100 nM MRS-1523, 10 μM adenosine; for effect of A3 antagonist on IB-MECA-stimulated isotonic shrinkage: 2 min preincubation, MRS-1097 300 nM, MRS-1191 100 nM, 100 nM IB-MECA
Method: A 0.5-ml aliquot of the HCE cell suspension in DMEM was added to 20 ml of each test solution, which contained (in mM): 110.0 NaCl, 15.0HEPES [4-(2-hydroxyethyl)-1-piperazineethanesulfonic acid], 2.5 CaCl2, 1.2 MgCl2, 4.7 KCl, 1.2 KH2PO4, 30.0 NaHCO3, and 10.0 glucose, at a pH of 7.4 and osmolality of 298-305 mOsm. Parallel aliquots of cells were studied on the same day. One aliquot usually served as a control, and the others were exposed to different experimental conditions at the time of suspension. The same amount of solvent vehicle (dimethylformamide, DMSO or ethanol) was always added to the control and experimental aliquots. The sequence of studying the suspensions was varied to preclude systematic time-dependent artifacts (Civan et al., Exp. Eye Res. 54:181-191, 1992).
Cell volumes of isosmotic suspensions were measured with a Coulter Counter (model ZBI-Channelyzer II), using a 100-μm aperture (Civan et al., supra., 1994). As previously described (Wax et al., supra., 1993), the cell volume (vC) of the suspension was taken as the peak of the distribution function. Cell shrinkage was fit as a function of time (t) to a monoexponential function:
vC=v∞+(v0−v∞)−[e^−(t−t^0^)/τ] {1}
where v∞ is the steady-state cell volume, v0 is the cell volume at the first point (t0) of the time course to be fit, and τ is the time constant of the shrinkage. For purposes of data reduction, the data were normalized to the first time point, taken to be 100% isotonic volume. Fits were obtained by nonlinear least-squares regression analysis, permitting both v∞and τ to be variables.
In order to differentiate among these receptors, the experiments were repeated in the present study using a series of agonists and antagonists selective for these receptors. As we wished to identify the effects of these receptors specifically on Cl^− channels, 5 μM gramicidin D was included in all solutions to eliminate any potential contribution from K^+ channels. This ionophore readily partitions into plasma membranes to form a cation-selective pore, and is widely used for studying volume regulation (Hoffmann et al., in Interaction of Cell Volume and Cell Function, Lang et al., eds., Springer, Heidelberg, Germany, pp. 188-248, (ACEP Series 14), 1993)). Under these conditions, release of cell Cl^− becomes the rate-limiting factor in both hypo-(Civan et al., Exp. Eye Res. 54:181-191, 1992) and isoosmotic cell shrinkage (Carre et al., supra., 1997).

[2] = molecular target: T1, recombinant human A2B receptors (Homo sapiens, UniProt P29275); test: Radioligand binding to recombinant human A2B receptors; conditions: at 10 μM
T1 sequence (P29275 1-332): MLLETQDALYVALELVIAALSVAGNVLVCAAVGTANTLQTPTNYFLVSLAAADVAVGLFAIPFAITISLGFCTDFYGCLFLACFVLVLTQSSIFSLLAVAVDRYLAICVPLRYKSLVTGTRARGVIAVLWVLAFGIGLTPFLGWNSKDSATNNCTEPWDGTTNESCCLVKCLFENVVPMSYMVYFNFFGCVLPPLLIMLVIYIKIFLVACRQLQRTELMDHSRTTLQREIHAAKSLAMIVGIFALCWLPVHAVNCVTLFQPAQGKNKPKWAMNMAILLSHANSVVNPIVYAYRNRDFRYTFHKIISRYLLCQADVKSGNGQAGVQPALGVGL

[3] = molecular target: human A2 receptors; conditions: read-out: Ki for binding to human A2 receptors; cited from earlier work
[4] = molecular target: T2, A1 receptors (Rattus norvegicus, UniProt P25099); test: Radioligand binding, [3H]R-PIA, rat cerebral cortex membranes
T2 construct: A1 receptors from rat cerebral cortex membranes; from tissue; host or cells: rat cerebral cortex membranes
T2 sequence (P25099 1-326): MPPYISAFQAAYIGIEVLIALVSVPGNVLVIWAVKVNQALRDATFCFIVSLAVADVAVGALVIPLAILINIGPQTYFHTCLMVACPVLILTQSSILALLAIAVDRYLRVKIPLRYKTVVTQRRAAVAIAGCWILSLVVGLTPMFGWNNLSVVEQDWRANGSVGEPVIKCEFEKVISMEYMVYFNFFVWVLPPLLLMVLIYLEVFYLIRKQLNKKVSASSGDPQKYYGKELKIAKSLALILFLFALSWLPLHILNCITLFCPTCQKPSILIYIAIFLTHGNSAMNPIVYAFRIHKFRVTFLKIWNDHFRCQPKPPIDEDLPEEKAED
Method: (§1) Radioligand binding studies. Binding of [^3H]R-N^6-phenylisopropyladenosine ([^3H]R-PIA) to A1 receptors from rat cerebral cortex membranes and of [^3H]-2-[4-[(2-carboxyethyl)phenyl]ethylamino]-5′-N-ethylcarbamoyladenosine ([^3H]CGS 21680) to A2A receptors from rat striatal membranes was performed as described previously (Schwabe et al., Naunyn Schmiedeberg Arch. Pharmacol. 313:179-187, 1980; Jarvis et al., J. Pharmacol. Exp. Ther. 251:888-893, 1989) Adenosine deaminase (3 units/mL) was present during the preparation of the brain membranes, in a pre-incubation of 30 min at 30° C., and during the incubation with the radioligands. Nonspecific binding was determined in the presence of 10 μM (A1 receptors) or 20 μM (A2A receptors)2-chloroadenosine.
(§2) All non-radioactive compounds were initially dissolved in DMSO, and diluted with buffer to the final concentration, where the amount of DMSO never exceeded 1%. Incubations were terminated by rapid filtration over Whatman GF/B filters, using a Brandell cell harvester (Brandell, Gaithersburg, MD). The tubes were rinsed three times with 3 mL buffer each.
(§3) At least five different concentrations of competitor, spanning 3 orders of magnitude adjusted appropriately for the IC50 of each compound, were used.

[5] = molecular target: T3, A2A receptors (Rattus norvegicus, UniProt P30543); test: Radioligand binding, [3H]CGS 21680, rat striatal membranes; conditions: at 100 μM
T3 construct: to A2A receptors from rat striatal membranes; from tissue; host or cells: rat striatal membranes
T3 sequence (P30543 whole entry): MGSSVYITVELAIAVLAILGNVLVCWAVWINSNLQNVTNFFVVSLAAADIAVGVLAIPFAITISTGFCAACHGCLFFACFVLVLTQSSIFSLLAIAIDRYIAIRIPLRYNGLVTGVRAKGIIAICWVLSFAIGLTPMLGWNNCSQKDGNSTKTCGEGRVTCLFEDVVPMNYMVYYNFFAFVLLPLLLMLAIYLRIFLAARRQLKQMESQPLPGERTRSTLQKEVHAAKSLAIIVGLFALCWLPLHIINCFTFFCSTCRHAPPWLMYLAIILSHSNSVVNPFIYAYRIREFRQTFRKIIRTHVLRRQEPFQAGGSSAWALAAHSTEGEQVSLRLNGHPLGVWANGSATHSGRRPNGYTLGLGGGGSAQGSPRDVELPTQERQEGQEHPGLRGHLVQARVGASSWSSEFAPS
Method: as §1, §2, §3

[6] = Oxidation of 1-methyl-1,4-dihydropyridine in rat brain homogenate; type: in vitro ADME; conditions: rat brain homogenate supernatant, pH 7.4, 37 C, read-out: t½ of oxidation to pyridinium salt 11
Method: The rat brain homogenate was prepared by the following method. One rat ([…]) was killed and the brain (weighing 2.26 g) was removed, and homogenized in 12 mL PBS (Biofluids, Inc., 1×pH 7.4). The homogenate was centrifuged at 12,000×rpm, and the supernatant was used. 5 mg of 24 dissolved in 0.2 mL of DMSO was mixed with 10 mL of brain homogenate (initial concentration of 1.27 mM), which was previously equilibrated to 37° C. in a water bath incubator, and shaking was continued at that temperature. Aliquots of 500 μL were withdrawn at 2, 4, 8, 16, 32, 64, 128, 256, 768 min (2×each) from the test medium, added immediately to 3 mL of ice-cold ethyl ether, shaken vigorously, and placed in a freezer. When all samples had been collected, and the ether layer of each sample was separated. After evaporation of the ether, each residue was dissolved in 200 μL methanol, filtered through Whatman 1 filter paper and analyzed by HPLC.
Pyridinium salt 11 could be generated through oxidation of the corresponding reduced precursor, 1-methyl-2,4-diethyl-3-(ethylsulfanylcarbonyl)-5-ethyloxycarbonyl-6-phenyl-1,4-dihydropyridine, 24. The conversion of 24 to 11 by chemical means (iodine in nitromethane) and during incubation at 37 C with rat brain membranes, to simulate in vivo conditions, was studied. The chemical conversion occurred readily, and the time course of the biochemical oxidation was recorded . […]

[7] = molecular target: T4, human A3 receptor (Homo sapiens, UniProt P0DMS8); test: Radioligand binding, [125I]AB-MECA, HEK-293 cell membranes; parameters: host or cells: HEK-293; conditions: read-out: Ki(hA3)
T4 sequence (P0DMS8 1-318): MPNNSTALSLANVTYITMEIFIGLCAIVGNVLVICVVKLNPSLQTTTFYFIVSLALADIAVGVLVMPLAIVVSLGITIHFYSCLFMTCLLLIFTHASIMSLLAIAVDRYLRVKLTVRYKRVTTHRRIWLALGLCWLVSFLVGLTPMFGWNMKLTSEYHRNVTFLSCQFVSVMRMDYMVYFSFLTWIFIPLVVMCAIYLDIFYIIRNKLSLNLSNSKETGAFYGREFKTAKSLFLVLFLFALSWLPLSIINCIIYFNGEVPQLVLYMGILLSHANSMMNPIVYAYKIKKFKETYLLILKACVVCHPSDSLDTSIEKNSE
Method: Natl. Acad. Sci. […] Natl. Acad. Sci. U.S.A. 89:7432-7436, 1992) was performed as described at 4° C. (Olah et al., Mol. Pharmacol. 45:978-982, 1994). The assay medium consisted of a buffer containing 10 mM Mg^2+, 50 mM Tris, 3 units/mL adenosine deaminase, and 1 mM EDTA, at pH 8.0 (4° C.). […] Incubations were terminated by rapid filtration over Whatman GF/B filters, using a Brandell cell harvester (Brandell, Gaithersburg, MD). The tubes were rinsed three times with 3 mL buffer each. At least five different concentrations of competitor, spanning 3 orders of magnitude adjusted appropriately for the IC50 of each compound, were used. IC50 values, calculated with the nonlinear regression method implemented in the InPlot program (Graph-PAD, San Diego, Calif.), were converted to apparent Ki values using the Cheng-Prusoff equation (Cheng et al., Biochem.

[8] = tested on: A1 and A2A receptors; test: Estimated occupancy of A1 and A2A receptors at the concentrations used; conditions: at the concentrations used (300 nM MRS 1097, 100 nM MRS 1191, 100 nM MRS 1523)

displacement of radioligand binding to recombinant human A2B receptors [2]	Ki [4] [µM]	percent displacement of specific radioligand binding at rat A2A receptors [5] [%]	half-life at 1.27 mM [6] [min]	Ki [7] [µM]	share of the A1 and A2A receptors that could have been occupied [8] [%]	Compound	effect of A3 antagonist on shrinkage triggered by 3 μM CGS-21680 [1]	effect of A3 antagonist on shrinkage triggered by 3 μM CGS-21680 ([1]; listed as MRS 1191)	effect on cell volume in the absence of IB-MECA ([1]; 100 nM antagonist alone)	effect of A3 antagonist on adenosine-stimulated isotonic shrinkage [1]	effect of A3 antagonist on adenosine-stimulated isotonic shrinkage ([1]; listed as MRS 1191)	effect of A3 antagonist on IB-MECA-stimulated isotonic shrinkage [1]	effect of A3 antagonist on IB-MECA-stimulated isotonic shrinkage ([1]; listed as MRS 1191)	Ki [3] [µM]	effect of A3 antagonist on adenosine-stimulated isotonic shrinkage ([1]; listed as MRS 1097)	effect of A3 antagonist on IB-MECA-stimulated isotonic shrinkage ([1]; listed as MRS 1097)
did not displace radioligand binding	–	–	–	–	–	CCOC(=O)C1=C(C)NC(c2ccccc2)=C(C(=O)OCc2ccccc2)C1C#Cc1ccccc1 (racemic) [MRS-1191, 3-ethyl 5-benzyl-2-methyl-6-phenyl-4-phenylethynyl-1,4-(±)-dihydropyridine-3,5-dicarboxylate]	abolished this effect; also recorded: blocked	prevented this shrinkage	did not affect cell volume	prevented the characteristic shrinkage	blocked the shrinkage	prevented characteristic shrinkage	prevent the shrinkage	> 100	–	–
–	28.4 ± 2.5	48±7	~47	0.379 ± 0.122	–	CCOC(=O)C1=C(c2ccccc2)N(C)C(CC)=C(C(=O)SCC)C1CC (stereo not shown) [Compound 24, 1-Methyl-2,4-diethyl-3-(ethylsulfanylcarbonyl)5-ethyloxycarbonyl-6-phenyl-1,4-dihydropyridine]	–	–	–	–	–	–	–	–	–	–
–	–	–	–	–	< 20	3-ethyl 5-benzyl-2-methyl-6-phenyl-4-styryl-1,4-(±)-dihydropyridine-3,5-dicarboxylate [MRS-1097]	–	–	–	prevented the characteristic shrinkage	–	prevented shrinkage	–	4.77	blocked the shrinkage	blocked the isoomotic shrinkage; also recorded: prevented the subsequent response; also recorded: prevent the shrinkage
